Results taken from patent publication US20040235722A1, “Epf receptor assays, compounds and therapeutic compositions” (priority 2001, published 2004).
Where “and” joins values, the source holds several entries; their conditions need not be identical. Equal values may be shown once. Read-outs that look alike come from different tables or passages of the source. Where no end group is shown, it is not given here.

Columns and labels:
[1] = test system: Hek 293 cells only transfected with the Gα16-pcDNA expression vector; test: FLIPR calcium assay, control cells without receptor; type: cell-based, human; conditions: test concentration 150 nM, no hDRR receptor (FIG. 3, FIG. 4)
Description: (§1) The hDRR4 expression plasmid or the hDRR7 expression plasmid was transiently co-transfected with a Gα16-pcDNA3 contruct using the FuGENE 6 reagent (Roche Molecular Biochemicals, Mannheim, Germany) into HEK293 cells. The cells were loaded with Fluo-4 (Molecular Probes, Eugene, Oreg., U.S.A.) according to the recommendations of the supplier. Subsequently the cells were assayed in the FLIPR instrument (Molecular Devices, Sunnyvale, Calif., U.S.A.) for Ca^2+ transients.
(§2) Activation of orphan GPCR hDRR4 (SEQ ID NO:2) by the hDRR binding fragment of EPF (SEQ ID NO:8) at a test concentration of 150 nM was measured in Hek293 cells co-transfected with Gα16-pcDNA. Relative fluorescence units (RFU) were determined by loading the cells with Fluo-4 (Molecular Probes, Eugene, Oreg., U.S.A.).
(§3) Activation of orphan GPCR hDRR7 (SEQ ID NO:12) by the HDRR binding fragment of EPF (SEQ ID NO: 8) at a test concentration of 150 nM after transient co-transfection with Gα16-pcDNA into HEK293 cells. Relative fluorescence units (RFU) were determined by loading the cells with Fluo-4 (Molecular Probes, Eugene, Oreg., U.S.A.).

hDRR4 [2] = biological target: T1, hDRR4 (Homo sapiens, UniProt Q96LB2); test: FLIPR calcium assay, HEK293 cells transiently co-transfected with hDRR4 and Gα16; type: cell-based; design: The full length reading frame was inserted into the mammalian expression vector pcDNA3; expressed in transfected cells; host or cells: HEK293
Description: as §1, §2
as §1, with “construct” for “contruct”, “Fluo4” for “Fluo-4”
(§4) The purified peptides or dried tissue fractions were dissolved in calcium buffer and loaded onto regular multi-well 96 plates. Subsequently the cells were assayed in the FLIPR instrument (Molecular Devices, Sunnyvale, Calif., U.S.A.) for Ca^2+ transients. For the EPF-related peptides the following pEC50 values were determined;

hDRR7 receptor = biological target: T2, hDRR7 receptor (Homo sapiens, UniProt Q96LB1); test: FLIPR calcium assay, HEK293 cells transiently co-transfected with hDRR7 and Gα16; type: cell-based; conditions: for EC50: MrgX2 taken as hDRR7, FLIPR Ca2+ transients (FIG. 10), read-out: MrgX2 (pEC50) (converted)
T2 construct: expressed in transfected cells; host or cells: HEK293
T2 sequence (Q96LB1 1-330): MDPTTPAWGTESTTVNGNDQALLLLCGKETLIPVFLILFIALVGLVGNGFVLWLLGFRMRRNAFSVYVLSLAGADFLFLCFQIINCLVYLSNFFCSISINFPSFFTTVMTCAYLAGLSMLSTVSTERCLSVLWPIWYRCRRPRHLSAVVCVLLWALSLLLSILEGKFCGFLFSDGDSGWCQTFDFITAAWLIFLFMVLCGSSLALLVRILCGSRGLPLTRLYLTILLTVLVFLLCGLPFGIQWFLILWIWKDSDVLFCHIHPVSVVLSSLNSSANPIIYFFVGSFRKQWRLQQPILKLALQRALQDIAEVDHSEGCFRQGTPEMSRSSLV
Description: as §1
as §1, with “The” for “The hDRR4 expression plasmid or the”
as §3
as §1, with “construct” for “contruct”, “Fluo4” for “Fluo-4”
as §4

hDRR4 [3] = biological target: T1, hDRR4; test: Stimulation of hDRR4 with angiotensin II and III (re-test of WO 99/32519); conditions: claimed in WO 99/32519; re-examined by present inventors
[4] = biological target: T3, GPCR RC56.3.1 (adenine receptor) (Rattus norvegicus, UniProt Q7TN49); test: [3H]Adenine binding to RC56.1.3 transfected cells; conditions: tritiated adenine
T3 construct: expressed in transfected cells; host or cells: COS cells (membranes)
T3 sequence (Q7TN49 1-304): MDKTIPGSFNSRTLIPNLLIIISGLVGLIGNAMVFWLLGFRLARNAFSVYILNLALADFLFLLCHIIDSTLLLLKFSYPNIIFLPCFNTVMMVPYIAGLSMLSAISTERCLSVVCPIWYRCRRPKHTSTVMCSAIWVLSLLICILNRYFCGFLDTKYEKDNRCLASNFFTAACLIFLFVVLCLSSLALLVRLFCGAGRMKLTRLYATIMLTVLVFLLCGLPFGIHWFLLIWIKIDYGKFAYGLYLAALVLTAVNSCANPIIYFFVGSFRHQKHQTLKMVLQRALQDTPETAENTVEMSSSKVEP
Description: (§5) The membranes were prepared as total particulate fractions. The cell lines were cultured to 90% confluency on 145 mm petri dishes and treated with 5 mM sodium butyrate, 24 hours before collection. The culturing medium was removed and the cells were washed twice with ice-cold phosphate-buffered saline (PBS w/o Ca^2+ and Mg^2+), scraped from the plates in 50 mM Tris-HCl buffer, pH 7.4, and collected by centrifugation (10 minutes at 16,000 RPM at 4° C.). The cell pellet was re-suspended in hypotonic 5 mM Tris-HCl buffer, pH 7.4, and homogenized with an Ultra Turrax homogenizer. The homogenate was centrifuged at 18,000 RPM for 20 minutes at 4° C. The final pellet was re-suspended in 50 mM Tris-HCl buffer, pH 7.4 and stored in aliquots at −70° C. A protein determination was performed using the Bradford protein assay (Biorad) using bovine serum albumin (BSA) as standard.
(§6) [^3H]Adenine binding experiments were performed to characterize transiently transfected cell lines. Membranes were thawed on ice and diluted in 50 mM HEPES buffer, pH 7.4 supplemented with 10 mM MgCl2 and 1 mM EGTA. […] Samples were counted in a β-scintillation counter after at least 6 hours to permit the glass fiber filters to become uniformly translucent. […]
(§7) Specific binding was calculated as difference between counts in the presence and absence of 1 μM unlabeled adenine.

hDRR4 [5] = biological target: T1, hDRR4; test: [3H]Adenine binding to membranes of hDRR4 transfected cells; conditions: tritiated adenine
Description: as §5, §6, §7

[6] = biological target: T4, human Dorsal Root Receptor 4 (hDRR4) (human, UniProt Q96LB2 1-322); test: cell-based or functional assay
[7] = biological target: T5, human Dorsal Root Receptor 7 (hDRR7) (human, UniProt Q96LB1 1-330); test: cell-based or functional assay
T5 sequence: T2 sequence (Q96LB1 1-330)

[8] = biological target: T4, human Dorsal Root Receptor 4 (hDRR4); test: cell-based or functional assay; remark: listed apart in the source
[9] = biological target: T5, human Dorsal Root Receptor 7 (hDRR7); test: cell-based or functional assay; remark: listed apart in the source
[10] = MrgX1 = hDRR4, FLIPR Ca2+ transients (FIG. 9), read-out: MrgX1 (pEC50) (converted)

T1 sequence (Q96LB2 whole entry): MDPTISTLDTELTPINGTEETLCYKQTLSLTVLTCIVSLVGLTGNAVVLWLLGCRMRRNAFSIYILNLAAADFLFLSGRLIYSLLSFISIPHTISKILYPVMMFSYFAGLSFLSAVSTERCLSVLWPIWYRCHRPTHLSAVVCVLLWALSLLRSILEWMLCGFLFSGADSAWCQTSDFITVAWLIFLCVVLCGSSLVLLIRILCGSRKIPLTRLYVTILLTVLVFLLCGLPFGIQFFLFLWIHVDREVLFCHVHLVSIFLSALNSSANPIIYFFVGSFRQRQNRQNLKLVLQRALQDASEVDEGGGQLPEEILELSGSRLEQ
T4 sequence (Q96LB2 whole entry): as above

AFRKFLPLFDRVLVERSA [SEQ ID NO:8, AFRKFLPLFDRVLVERSA]
Response of cells transfected with Gα16 only [1]: did not response | EC50 (hDRR4 [2]; FLIPR calcium assay, different test concentrations (FIG. 7), read-out: EC50-value on hDRR4 receptor): 10.6 to 12 nM and 12 nM | Activation of hDRR4 (relative fluorescence units) (hDRR4 [2]; test concentration 150 nM, Fluo-4 (FIG. 3)): Activation | Activation of hDRR7 (relative fluorescence units) (hDRR7 receptor; test concentration 150 nM, Fluo-4 (FIG. 4)): Activation

angiotensin II (DRVYIHPF; Angiotensin-2; UniProt P01019 25-32, looked up)
Stimulation of hDRR4 by angiotensin (angiotensin receptor characterization) (hDRR4 [3]): could not be confirmed

LGQAFRKFLPLFDRVLVE [EPF 1-18, LGQAFRKFLPLFDRVLVE]
EC50 (hDRR4 [2]; [10]): 99.3 nM | EC50 (hDRR7 receptor): 820 nM

angiotensin III
Stimulation of hDRR4 by angiotensin (angiotensin receptor characterization) (hDRR4 [3]): could not be confirmed

LGQAFRKFLPLFDRVL [EPF 1-16, LGQAFRKFLPLFDRVL]
EC50 (hDRR4 [2]; [10]): 15.1 nM | EC50 (hDRR7 receptor): 873 nM

Nc1ncnc2nc[nH]c12 [adenine]
Specific response on hDRR4 in FLIPR-based cellular assay (hDRR4 [2]; HEK293 with and without co-transfection of chimeric G proteins or Gα16): no specific response | Specific adenine binding to RC56.1.3 transfected cells [4]: clear specific adenine binding | Specific adenine binding to hDRR4 (hDRR4 [5]): no specific adenine binding

B1: EPF 1-18 (LGQAFRKFLPLFDRVLVE, SEQ ID NO: 19) (peptide)
peptide: LGQAFRKFLPLFDRVLVE
pEC50, FLIPR Ca2+ transients [6]: 7 pEC50 | pEC50, FLIPR Ca2+ transients [7]: 6.09 pEC50

B2: EPF 1-16 (LGQAFRKFLPLFDRVL, SEQ ID NO: 21) (peptide)
peptide: LGQAFRKFLPLFDRVL
pEC50, FLIPR Ca2+ transients [6]: 7.82 pEC50 | pEC50, FLIPR Ca2+ transients [7]: 6.06 pEC50

B3: hDRR binding fragment of EPF (SEQ ID NO:8) (peptide)
peptide: AFRKFLPLFDRVLVERSA
EC50-value [8]: 10.6 nM and 6 to 12 nM | EC50-value, FLIPR calcium assay [8]: 12 nM | EC50-value, FLIPR calcium assay [9]: 354 nM
